Reference: PubChem BioAssay AID248 (DTP/NCI, 2004)
Several values for one entry are separate records, joined by “and”; a condition that tells them apart may be missing. Equal values may be shown once. Inconclusive results and toxic doses are left out. Cut-off read from the data, not from the text of the source: active = T/C of 150% or more; inactive = T/C below 125%.

Tested on: L1210 leukemia ip in BDF1 mice, survival T/C
Experiment: NCI In Vivo Anticancer Drug Screen. Data for tumor model L1210 Leukemia (intraperitoneal) in B6D2F1 (BDF1) mice
Conditions: endpoint: mean survival time, higher = longer survival
Outline: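 Antitumor effect is assessed in tumor-bearing animals. Survival in the compound arm is compared with a vehicle-dosed control arm and expressed as their quotient.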

[1] = dose: 50.0 mg/kg/injection, schedule: Q01DX009 (ip), vehicle: Klucel (hydroxypropylcellulose) (HPC)
[2] = dose: 100.0 mg/kg/injection, schedule: Q01DX009 (ip), vehicle: Klucel (hydroxypropylcellulose) (HPC)
[3] = dose: 200.0 mg/kg/injection, schedule: Q01DX009 (ip), vehicle: Klucel (hydroxypropylcellulose) (HPC)
[4] = dose: 400.0 mg/kg/injection, schedule: Q01DX009 (ip), vehicle: Klucel (hydroxypropylcellulose) (HPC)
[5] = dose: 100.0 mg/kg/injection, schedule: Q01DX009 (ip), vehicle: saline
[6] = dose: 100.0 mg/kg/injection, schedule: Q04DX003 (ip), vehicle: saline
[7] = dose: 200.0 mg/kg/injection, schedule: Q01DX009 (ip), vehicle: saline
[8] = dose: 200.0 mg/kg/injection, schedule: Q04DX003 (ip), vehicle: saline
[9] = dose: 6.25 mg/kg/injection, schedule: Q01DX009 (ip), vehicle: saline with Tween-80
[10] = dose: 12.5 mg/kg/injection, schedule: Q01DX009 (ip), vehicle: saline with Tween-80
[11] = dose: 25.0 mg/kg/injection, schedule: Q01DX009 (ip), vehicle: saline with Tween-80
[12] = dose: 100.0 mg/kg/injection, schedule: Q04DX003 (ip), vehicle: saline with Tween-80
[13] = dose: 200.0 mg/kg/injection, schedule: Q04DX003 (ip), vehicle: saline with Tween-80
[14] = dose: 400.0 mg/kg/injection, schedule: Q04DX003 (ip), vehicle: saline with Tween-80
[15] = dose: 100.0 mg/kg/injection, schedule: Q04DX003 (ip), vehicle: Klucel (hydroxypropylcellulose) (HPC)
[16] = dose: 200.0 mg/kg/injection, schedule: Q04DX003 (ip), vehicle: Klucel (hydroxypropylcellulose) (HPC)
[17] = dose: 400.0 mg/kg/injection, schedule: Q04DX003 (ip), vehicle: Klucel (hydroxypropylcellulose) (HPC)
[18] = dose: 50.0 mg/kg/injection, schedule: Q01DX009 (ip), vehicle: saline with Tween-80
[19] = dose: 100.0 mg/kg/injection, schedule: Q01DX009 (ip), vehicle: saline with Tween-80
[20] = dose: 100.0 mg/kg/injection, schedule: Q01DX001 (ip), vehicle: Klucel (hydroxypropylcellulose) (HPC)
[21] = dose: 200.0 mg/kg/injection, schedule: Q01DX001 (ip), vehicle: Klucel (hydroxypropylcellulose) (HPC)
[22] = dose: 400.0 mg/kg/injection, schedule: Q01DX001 (ip), vehicle: Klucel (hydroxypropylcellulose) (HPC)

Measured: T/C

COC(=O)c1ccc2ccccc2n1
inactive: dose: 37.5 mg/kg/injection, schedule: Q04DX003 (ip), vehicle: saline 112 % of control | dose: 75.0 mg/kg/injection, schedule: Q01DX001 (ip), vehicle: saline 112 % of control | dose: 75.0 mg/kg/injection, schedule: Q04DX003 (ip), vehicle: saline 93 % of control | dose: 150.0 mg/kg/injection, schedule: Q01DX001 (ip), vehicle: saline 86 % of control | dose: 150.0 mg/kg/injection, schedule: Q04DX003 (ip), vehicle: saline 93 % of control

CCOCc1c(COc2ccc(Cl)cc2)n(C)c2ccccc12
inactive: dose: 100.0 mg/kg/injection, schedule: Q04DX002 (ip), vehicle: saline 98 % of control | dose: 200.0 mg/kg/injection, schedule: Q04DX002 (ip), vehicle: saline 98 % of control | dose: 400.0 mg/kg/injection, schedule: Q04DX002 (ip), vehicle: saline 104 % of control

CCOc1ccc2nc(/C=C/c3ccc(N(C)C)cc3)ccc2c1
inactive: [1] 94 % of control | [2] 94 % of control | [3] 92 % of control | [4] 100 % of control

CCc1nccc(=O)[nH]1
inactive: dose: 50.0 mg/kg/injection, schedule: Q01DX009 (ip), vehicle: saline 102 % of control and 101 % of control | [5] 88 % of control and 110 % of control | [6] 94 % of control and 110 % of control | [7] 100 % of control and 103 % of control | [8] 89 % of control and 104 % of control

CCOC(=O)C(OCc1ccccc1)(C(=O)Cl)C(C)C (stereo unspecified)
inactive: [9] 98 % of control | dose: 6.25 mg/kg/injection, schedule: Q04DX003 (ip), vehicle: saline 93 % of control | [10] 100 % of control | dose: 12.5 mg/kg/injection, schedule: Q04DX003 (ip), vehicle: saline 97 % of control | [11] 98 % of control | dose: 25.0 mg/kg/injection, schedule: Q04DX003 (ip), vehicle: saline 92 % of control | dose: 50.0 mg/kg/injection, schedule: Q04DX003 (ip), vehicle: saline 103 % of control

CN(C)CCN(Cc1ccccc1)c1ccccn1
inactive: dose: 75.0 mg/kg/injection, schedule: Q01DX001 (ip), vehicle: carboxymethylcellulose (CMC) 100 % of control | dose: 150.0 mg/kg/injection, schedule: Q01DX001 (ip), vehicle: carboxymethylcellulose (CMC) 95 % of control

CC(=O)OC1C(=O)C(C)(C)CN(C(C)(C)C)CC1(C)C (stereo unspecified)
inactive: dose: 100.0 mg/kg/injection, schedule: Q01DX001 (ip), vehicle: saline sonified 102 % of control | dose: 200.0 mg/kg/injection, schedule: Q01DX001 (ip), vehicle: saline sonified 91 % of control | dose: 400.0 mg/kg/injection, schedule: Q01DX001 (ip), vehicle: saline sonified 90 % of control

CCOC(=O)C(C=O)C(C(=O)OCC)C(OCC)OCC (stereo unspecified)
inactive: [12] 111 % of control | [13] 104 % of control | [14] 109 % of control

CCOC(=O)CNC(c1ccccc1)(c1ccccc1)c1ccccc1
inactive: [2] 106 % of control | [15] 91 % of control | [3] 90 % of control | [16] 91 % of control | [4] 90 % of control | [17] 98 % of control

O=C1C(=C(C(F)(F)F)C(F)(F)F)C2CCC1C2 (stereo unspecified)
inactive: [9] 93 % of control | dose: 6.25 mg/kg/injection, schedule: Q04DX003 (ip), vehicle: saline with Tween-80 114 % of control | [10] 93 % of control | dose: 12.5 mg/kg/injection, schedule: Q04DX003 (ip), vehicle: saline with Tween-80 92 % of control | dose: 25.0 mg/kg/injection, schedule: Q04DX003 (ip), vehicle: saline with Tween-80 96 % of control

O=C(Nc1c(Cl)cc2c(c1Cl)Cc1cc([N+](=O)[O-])ccc1-2)C(Cl)Cl
inactive: dose: 100.0 mg/kg/injection, schedule: Q01DX001 (ip), vehicle: carboxymethylcellulose (CMC) 98 % of control | dose: 200.0 mg/kg/injection, schedule: Q01DX001 (ip), vehicle: carboxymethylcellulose (CMC) 102 % of control | dose: 400.0 mg/kg/injection, schedule: Q01DX001 (ip), vehicle: carboxymethylcellulose (CMC) 98 % of control

CN(C)Cc1cc(C(C)(C)C)c(O)c(C(C)(C)C)c1
inactive: [11] 112 % of control | [18] 98 % of control | [19] 94 % of control | [12] 95 % of control

O=C(O)CC1CC=CCC1CC(=O)O (stereo unspecified)
inactive: dose: 100.0 mg/kg/injection, schedule: Q01DX009 (ip), vehicle: saline sonified 95 % of control | dose: 200.0 mg/kg/injection, schedule: Q01DX009 (ip), vehicle: saline sonified 101 % of control | dose: 400.0 mg/kg/injection, schedule: Q01DX009 (ip), vehicle: saline sonified 104 % of control

CC1CCCN(C(=O)Nc2cccc(Cl)c2Cl)C1 (stereo unspecified)
inactive: [2] 87 % of control | [3] 92 % of control | [4] 96 % of control

COC(=O)c1cccc(C)c1C(=O)c1ccccc1
inactive: [2] 104 % of control | [15] 101 % of control | [3] 96 % of control | [16] 101 % of control | [4] 98 % of control | [17] 95 % of control

COc1cc2c(c3ccccc13)CCCC2=O
inactive: [12] 103 % of control | [13] 93 % of control | [14] 92 % of control

CCOC(=O)C1OC1(C)C (stereo unspecified)
inactive: dose: 100.0 mg/kg/injection, schedule: Q04DX002 (ip), vehicle: Klucel (hydroxypropylcellulose) (HPC) 88 % of control | dose: 200.0 mg/kg/injection, schedule: Q04DX002 (ip), vehicle: Klucel (hydroxypropylcellulose) (HPC) 103 % of control | dose: 400.0 mg/kg/injection, schedule: Q04DX002 (ip), vehicle: Klucel (hydroxypropylcellulose) (HPC) 95 % of control

CCC(C(=O)c1ccccc1)C(O)(C(F)(F)F)C(F)(F)F (stereo unspecified)
inactive: [20] 96 % of control | [15] 94 % of control | [21] 106 % of control | [16] 104 % of control | [22] 95 % of control | [17] 104 % of control

N#CCCC1=C(O)CCCC1=O
inactive: [18] 93 % of control | [19] 93 % of control | dose: 200.0 mg/kg/injection, schedule: Q01DX009 (ip), vehicle: saline with Tween-80 97 % of control

Cn1ncc2ccccc21
inactive: dose: 62.5 mg/kg/injection, schedule: Q01DX009 (ip), vehicle: other 101 % of control | dose: 125.0 mg/kg/injection, schedule: Q01DX009 (ip), vehicle: other 102 % of control | dose: 250.0 mg/kg/injection, schedule: Q01DX009 (ip), vehicle: other 93 % of control

CSc1nccc(=O)[nH]1
inactive: [1] 100 % of control | [2] 95 % of control | [15] 102 % of control | [16] 96 % of control

CC(=O)OC(CC[P+](c1ccccc1)(c1ccccc1)c1ccccc1)(C(=O)c1ccccc1)c1ccccc1 (stereo unspecified)
inactive: dose: 100.0 mg/kg/injection, schedule: Q01DX001 (ip), vehicle: saline with Tween-80 95 % of control

O=[N+]([O-])c1cccc(C=Nc2ccccc2Cl)c1
inactive: [20] 101 % of control and 103 % of control | [21] 101 % of control | [22] 101 % of control and 103 % of control

CC(=O)OCc1ccccn1
inactive: [5] 97 % of control | [6] 94 % of control | [7] 97 % of control | [8] 99 % of control | dose: 400.0 mg/kg/injection, schedule: Q04DX003 (ip), vehicle: saline 93 % of control

Cc1ccc(-c2cn(CCCOc3ccccc3)c(=O)nc2N)cc1
inactive: dose: 50.0 mg/kg/injection, schedule: Q01DX001 (ip), vehicle: Klucel (hydroxypropylcellulose) (HPC) 89 % of control | [20] 99 % of control | [21] 87 % of control
